Here are results for 14 molecules from patent US10047084B2, “Imidazolone derivatives, pharmaceutical compositions and uses thereof” (BEIJING FORELANDPHARMA CO. LTD., priority 2013, dated 2018).

Some results are limits rather than exact numbers.

Common to all, as to assay type: cell-based
For one experiment, the system named is MV-4-11. Kind of experiment: CTG cell survival assay, MV-4-11. The settings on record: Homo sapiens, MV4-11, MV-4-11 cells. The source says:
(§1) 2. CTG Cell Survival Assay:
(§2) ATP is necessarily produced during the metabolic activities of viable cells, and there is a linear relationship between the content of ATP and the number of viable cells. Cell viability assay by CTG chemiluminescence is a general method for detecting the number of viable cells in the culture cells based on this principle. The addition of the CellTiter-Glo (CTG) reagent may induce cell lysis and produce chemiluminescent signals directly proportional to the amount of ATP in the well-plate, and thereby the cell proliferation activity in the well-plate can be measured by the reading values from the chemiluminescence.
(§3) 2.1 Experimental Materials and Instruments:
2.1.1 Experimental Materials: compounds to be tested, cell basal culture medium, RPMI Medium 1640 (Invitrogen, Cat#11875-093), fetal calf serum (FBS): Hyclone FETAL BOVINE SERUM DEFINED (Invitrogen, Cat#SH30070.03), antibiotics: Penicilin Streptomycin (Invitrogen, Cat#15140-122), phosphate buffer (Corning Cellgro, Cat#R21-040-CV), cell digestive solution: 0.25% Trypsin-EDTA (Invitrogen, Cat#25200-056), CTG detection kit: Promega, Cat#G7571, flat-bottom 96-well black bottom plate: NUNC, Cat#165305, T25 culture flask: NUNC, Cat#156367, T75 culture flask: NUNC, Cat#156439
2.2 Experimental Instruments: Carbon Dioxide Incubator, SANYO-MCO-20AIC, Biosafe Cabinet: BSC-1360-LIIA2, Table-Top High-Speed Refrigerated Centrifuge: SorvallST 16R, Microplate Rapid Oscillator: QB-9001, M3 Reader: SpectraMax M3, Microscope: OLYMPUS-CKX41/CKX31.
2.3 Preparation of Solutions and Reagents: Formulation of cell growth medium: RPMI Medium 1640+10% FBS+antibiotics, others: trypsin digestive solution, phosphate buffer (PBS), DMSO, CTG detection kit.
2.4 Experimental Procedure: • 1.4.1 Cell Thawing: Cryogenic vials were removed from the liquid nitrogen container, directly immersed in a water bath at 37° C., and shaked from time to time to thaw. The cryogenic vials were removed from the water bath at 37° C., and transferred to the biosafe cabinet. Their lids were opened, and the cell suspensions were aspirated with pipettes, added to centrifuge tubes, and then added with more than 10 volumes of culture solution, mixed well; centrifuged for 5 min at 1000 rpm; the supernatant was discarded, and medium containing cell growth was added to resuspend cells. All cell suspensions were seeded to the T25 culture flasks and static cultured in an incubator at 37° C.; the culture solution were changed once on the next day, and continued to be cultured. • 2.4.2 Cell Passaging: After cells were grown to logarithmic phase and were 80%-90% confluent, cells were removed and placed in the biosafe cabinet, the old culture solution was discarded, and the cells were wetted and washed with PBS once or twice. An appropriate amount of 0.25% Trypsin-EDTA solution was added to the culture flasks. The flasks were placed in the carbon dioxide incubator at 37° C. for 2-5 min. An appropriate amount of cell growth medium containing 10% PBS was added to terminate the digestion, lightly swished, and transferred to the centrifuge tubes and centrifuged for 5 min at 1000 rpm. The cells were prepare (into cell suspensions for passaging and experimental use. • 2.4.3 Cell Plating • 2.4.3.1 A cell suspension was prepared: After cells were grown to logarithmic phase and were 80%-90% confluent, the cells were removed to the biosafe cabinet, and the old culture solution was discarded, then the cells were wetted and washed with PBS once or twice. An appropriate amount of 0.25% Trypsin-EDTA solution was added to the culture flask. The flask was placed in a carbon dioxide incubator at 37° C. for 2-5 min. An appropriate amount of the cell growth medium containing 10% PBS was added to terminate digestion, and was lightly swished. The solution was transferred to a centrifuge tube, centrifuged for 5 min at 1000 rpm, and counted. […]

A further experiment deals with PC-3. In words: CTG cell survival assay, PC-3. The settings on record: Homo sapiens, PC-3 cells.
Description: as §1, §2, §3
(§4) 2.4 Experimental Procedure: • 1.4.1 Cell Thawing: Cryogenic vials were removed from the liquid nitrogen container, directly immersed in a water bath at 37° C., and shaked from time to time to thaw. The cryogenic vials were removed from the water bath at 37° C., and transferred to the biosafe cabinet. Their lids were opened, and the cell suspensions were aspirated with pipettes, added to centrifuge tubes, and then added with more than 10 volumes of culture solution, mixed well; centrifuged for 5 min at 1000 rpm; the supernatant was discarded, and medium containing cell growth was added to resuspend cells. All cell suspensions were seeded to the T25 culture flasks and static cultured in an incubator at 37° C.; the culture solution were changed once on the next day, and continued to be cultured. • 2.4.2 Cell Passaging: After cells were grown to logarithmic phase and were 80%-90% confluent, cells were removed and placed in the biosafe cabinet, the old culture solution was discarded, and the cells were wetted and washed with PBS once or twice. An appropriate amount of 0.25% Trypsin-EDTA solution was added to the culture flasks. The flasks were placed in the carbon dioxide incubator at 37° C. for 2-5 min. An appropriate amount of cell growth medium containing 10% PBS was added to terminate the digestion, lightly swished, and transferred to the centrifuge tubes and centrifuged for 5 min at 1000 rpm. The cells were prepare (into cell suspensions for passaging and experimental use. • 2.4.3 Cell Plating • 2.4.3.1 A cell suspension was prepared: After cells were grown to logarithmic phase and were 80%-90% confluent, the cells were removed to the biosafe cabinet, and the old culture solution was discarded, then the cells were wetted and washed with PBS once or twice. An appropriate amount of 0.25% Trypsin-EDTA solution was added to the culture flask. The flask was placed in a carbon dioxide incubator at 37° C. for 2-5 min. An appropriate amount of the cell growth medium containing 10% PBS was added to terminate digestion, and was lightly swished. The solution was transferred to a centrifuge tube, centrifuged for 5 min at 1000 rpm, and counted. […] Secondly, 20 uM of the compound to be tested was diluted with the cell growth medium containing 0.2% DMSO in 3-fold dilution to obtain 9 concentrations, and there were 10 concentration gradients in total. • 2.4.4.3 Addition of the compounds to be tested: the prepared gradient dilution solutions of compounds to be tested were taken and added to the cell culture plate at 100 ul/well; at this point, the maximum concentration of compounds to be tested was 10 uM, and the concentration of DMSO was 0.1%.

The test system of a further experiment is SK-BR3/BT474. Kind of experiment: CTG cell survival assay, SK-BR3/BT474. The settings on record: SK-BR3/BT474 cells.
Description: as §1, §2, §3, §4

Take `Cn1c(=O)n([C@H]2CC[C@H](O)CC2)c2c3cc(-c4ccc(-c5ccccc5)nc4)ccc3ncc21` [Example 25, 1-((1r,4r)-4-hydroxycyclohexyl)-3-methyl-8-(6-phenylpyridin-3-yl)-1H-imidazo[4,5-c]quinolin-2(3H)-one]: the half-maximal effective concentration (EC50) (usually the midpoint of the concentration-response curve) with MV-4-11 was less than 0.5 µM; in the experiment on PC-3, less than 0.1 µM; in the experiment with SK-BR3/BT474, less than 0.5 µM.

As to `CC(=O)N[C@H]1CC[C@@H](n2c(=O)n(C)c3cnc4ccc(-c5ccc(-c6cnn(C)c6)nc5)cc4c32)CC1` [Example 33, N-((1s,4s)-4-(3-methyl-8-(6-(1-methyl-1H-pyrazol-4-yl)pyridin-3-yl)-2-oxo-2,3-dihydro-1H-imidazo[4,5-c]quinolin-1-yl)cyclohexyl)acetamide], the EC50 with MV-4-11 is less than 0.5 µM; in the experiment on PC-3, less than 0.2 µM; in the experiment with SK-BR3/BT474, less than 0.1 µM.

On to `Cn1cc(-c2ccc(-c3ccc4ncc5c(c4c3)n([C@H]3CC[C@@H](NS(C)(=O)=O)CC3)c(=O)n5C)cn2)cn1` [Example 34, N-((1s,4s)-4-(3-methyl-8-(6-(1-methyl-1H-pyrazol-4-yl)pyridin-3-yl)-2-oxo-2,3-dihydro-1H-imidazo[4,5-c]quinolin-1-yl)cyclohexyl)methanesulfonamide], for which the EC50 in the experiment on MV-4-11 was less than 0.2 µM; in the experiment on PC-3 it was less than 0.1 µM; in the experiment on SK-BR3/BT474, less than 0.05 µM.

In the case of `Cn1cc(-c2ccc(-c3ccc4ncc5c(c4c3)n([C@H]3CC[C@@H](C(=O)O)CC3)c(=O)n5C)cn2)cn1` [Example 35, (1s,4s)-4-(3-methyl-8-(6-(1-methyl-1H-pyrazol-4-yl)pyridin-3-yl)-2-oxo-2,3-dihydro-1H-imidazo[4,5-c]quinolin-1-yl)cyclohexanecarboxylic acid], the half-maximal effective concentration (EC50) in the experiment with MV-4-11 was less than 0.5 µM; in the experiment on SK-BR3/BT474 it was less than 0.2 µM.

Regarding `Cn1cc(-c2ccc(-c3ccc4ncc5c(c4c3)n(-c3ccc(C(C)(C)C(N)=O)cc3)c(=O)n5C)cn2)cn1` [Example 40, 2-methyl-2-(4-(3-methyl-8-(6-(1-methyl-1H-pyrazol-4-yl)pyridin-3-yl)-2-oxo-2,3-dihydro-1H-imidazo[4,5-c]quinolin-1-yl)phenyl)propionamide], the EC50 came to 0.03 µM with MV-4-11, 0.01 µM in the experiment on PC-3 and 0.025 µM in the experiment on SK-BR3/BT474.

`Cn1cc(-c2ccc(-c3ccc4ncc5c(c4c3)n(-c3ccc(C(C)(C)C(=O)O)cc3)c(=O)n5C)cn2)cn1` [Example 41, 2-methyl-2-(4-(3-methyl-8-(6-(1-methyl-1H-pyrazol-4-yl)pyridin-3-yl)-2-oxo-2,3-dihydro-1H-imidazo[4,5-c]quinolin-1-yl)phenyl)propionic acid] came in with an EC50 in the experiment with MV-4-11 of 0.1 µM.

Regarding `Cn1c(=O)n([C@H]2CCN(S(C)(=O)=O)C2)c2c3cc(-c4ccc(-n5cccn5)nc4)ccc3ncc21` [Example 44, (S)-8-(6-(1H-pyrazol-1-yl)pyridin-3-yl)-3-methyl-1-(1-(methanesulfonyl)pyrrolidin-3-yl)-1H-imidazo[4,5-c]quinolin-2(3H)-one], the EC50 is 0.04 µM with MV-4-11, less than 0.05 µM with PC-3 and 0.09 µM in the experiment with SK-BR3/BT474.

In the case of `Cn1c(=O)n([C@H]2CCN(S(C)(=O)=O)C2)c2c3cc(-c4ccc(-n5ccnn5)nc4)ccc3ncc21` [Example 46, (S)-8-(6-(1H-1,2,3-triazol-1-yl)pyridin-3-yl)-3-methyl-1-(1-(methanesulfonyl)pyrrolidin-3-yl)-1H-imidazo[4,5-c]quinolin-2(3H)-one], the midpoint of the response with SK-BR3/BT474, the EC50, lay at 0.4 µM.

`Cn1cnc(-c2ccc(-c3ccc4ncc5c(c4c3)n([C@H]3CCN(S(C)(=O)=O)C3)c(=O)n5C)cn2)n1` [Example 48, (S)-3-methyl-8-(6-(1-methyl-1H-1,2,4-triazol-3-yl)pyridin-3-yl)-1-(1-(methanesulfonyl)pyrrolidin-3-yl)-1H-imidazo[4,5-c]quinolin-2(3H)-one] had an EC50 in the experiment with SK-BR3/BT474 of less than 0.1 µM.

With `Cn1cc(-c2ccc(-c3ccc4ncc5c(c4c3)n([C@@H]3CCCN(S(=O)(=O)C4CC4)C3)c(=O)n5C)cn2)cn1` [Example 53, (R)-1-(1-(cyclopropylsulfonyl)piperidin-3-yl)-3-methyl-8-(6-(1-methyl-1H-pyrazol-4-yl)pyridin-3-yl)-1H-imidazo[4,5-c]quinolin-2(3H)-one], the figures for the 50% effective concentration (EC50) in the experiment on PC-3 and in the experiment on SK-BR3/BT474 were less than 0.02 µM and 0.1 µM, respectively.

With `Cn1cc(-c2ccc(-c3ccc4ncc5c(c4c3)n([C@@H]3CCCN(S(N)(=O)=O)C3)c(=O)n5C)cn2)cn1` [Example 54, (R)-3-(3-methyl-8-(6-(1-methyl-1H-pyrazol-4-yl)pyridin-3-yl)-2-oxo-2,3-dihydro-1H-imidazo[4,5-c]quinolin-1-yl)piperidine-1-sulfamide], the 50% effective concentration (EC50) with SK-BR3/BT474 came to 0.07 µM.

`Cn1cc(-c2ccc(-c3ccc4ncc5c(c4c3)n([C@@H]3CCCN(S(C)(=O)=O)C3)c(=O)n5C)cn2)nn1` [Example 58, (R)-3-methyl-8-(6-(1-methyl-1H-1,2,3-triazol-4-yl)pyridin-3-yl)-1-(1-(methanesulfonyl)piperidin-3-yl)-1H-imidazo[4,5-c]quinolin-2(3H)-one] displayed a 50% effective concentration (EC50) with MV-4-11 of 0.06 µM.

In turn, `Cn1cc(-c2ccc(-c3ccc4ncc5c(c4c3)n(CCNS(C)(=O)=O)c(=O)n5C)cn2)cn1` [Example 63, N-(2-(3-methyl-8-(6-(1-methyl-1H-pyrazol-4-yl)pyridin-3-yl)-2-oxo-2,3-dihydro-1H-imidazo[4,5-c]quinolin-1-yl)ethyl)methanesulfonamide] gave an EC50 in the experiment on SK-BR3/BT474 of 0.3 µM.

In the experiment with SK-BR3/BT474, `Cn1cc(-c2ccc(-c3ccc4ncc5c(c4c3)n(C3CN(S(C)(=O)=O)C3)c(=O)n5C)cn2)cn1` [Example 64, 3-methyl-8-(6-(1-methyl-1H-pyrazol-4-yl)pyridin-3-yl)-1-(1-(methanesulfonyl)azetidin-3-yl)-1H-imidazo[4,5-c]quinolin-2(3H)-one] showed an EC50 of 0.2 µM.
